1 compound from patent publication US20130344494A1, “MYH10 AS A NEW MARKER OF PATHOLOGIES RESULTING FROM RUNX1 INACTIVATION” (priority 2011, published 2013) can be followed below.

One assay has as its system CD41+ cells (MKs). In words: FRAP of actin-GFP turnover in the contractile ring of MKs. The conditions noted are these: Blebbistatin 12.5 μM. In kind it is cell-based. How it is done: CD41^+ GFP^+ and CD41^− GFP^+ cells were sorted and the actin turnover was measured in the contractile ring at the end of cytokinesis by FRAP in the dipolar mitosis or endomitosis.
Another assay relates to CD41+ MK. In words: Ploidy level of CD41+ MK cultured from mouse fetal liver Lin- progenitors. In kind it is cell-based, mice. The conditions noted are these: 50 μM blebbistatin, p=0.01, n=3. How it is done: Thus, the ploidy level of CD41^+ MK was analyzed directly after dissociation the fetal liver as previously described for bone marrow MK (GILLES et al, Blood, 2009). Briefly, the hematopoietic progenitors (Lineage negative, Lin-, cells) were purified from fetal liver of E13.5 by the kit MILTENYI BIOTEC and were cultivated in serum free medium with TPO and stem cell factor (SCF). Blebbistatin was added in the culture just after the purification and ploidy level of CD41^+ cells was analyzed at day 3 of culture.

The subject of the next assay is H2B-GFP-expressing MKs. In words: Real-time video microscopy of endomitosis in H2B-GFP-expressing MKs. It is filed as cell-based. The note with it: Blebbistatin 25 μM. The method, then:
To check more precisely how myosin II inhibition affects the endomitosis process, we used real-time video microscopy to monitor endomitosis in H2B-GFP-expressing MKs treated with Blebbistatin (25 μM). Endomitotic MK treated with Blebbistatin or without Blebbistatin were filmed in 3 independent experiments.

In a further assay the test system is CD41+/CD42+ MKs. Put plainly: MK ploidy level by flow cytometry after addition of Blebbistatin. In kind it is cell-based. The note with it: added at day 6, 72 h. How it is done: To investigate the role of myosin II in MK endomitosis, Blebbistatin was used to inhibit its […] during megakaryocytosis. Blebbistatin is added into MK culture at day 6. The ploidy level of CD41^+/CD42^+ MKs was analyzed by flow cytometry 72 h after addition of Blebbistatin.
In general terms: In flow cytometry, cells or beads pass a laser one at a time.

For `Cc1ccc2c(c1)C(=O)C1(O)CCN(c3ccccc3)C1=N2` (centres unmarked) [Blebbistatin], the “actin-GFP fluorescence recovery in the contractile ring of MKs” value in the assay with CD41+ cells (MKs) (control 55.7%±12.8, n=8, p=0.01) is listed as 42.9%±9.0. Moreover, in the assay on CD41+ cells (MKs) (n=8), the “t1/2 of actin-GFP fluorescence recovery” value is 2.94 ± 1.35 s. Also, the mean ploidy level in the assay with CD41+ MK (myh9−/− mice, without 10.40) is reported as 14.72; with CD41+ MK (wt control mice, without 10.00N) it was 13.40 N. Moreover, the “furrow ingression of MKs” value in the assay on H2B-GFP-expressing MKs is “almost completely inhibited”. Moreover, in the assay on H2B-GFP-expressing MKs, the metaphase-to-anaphase transition entry is “apparently normal”. In addition, the mean ploidy in the assay with CD41+/CD42+ MKs (25 μM Blebbistatin, control 6.47N, n=3, p=0.015) is on record as 11.27 N; in the assay on CD41+/CD42+ MKs (100 μM Blebbistatin, control 6.28N, n=4, p=0.008), 12.13 N.
